Source: ChEMBL document CHEMBL3132782, “Identification of orally bioavailable small-molecule inhibitors of hematopoietic prostaglandin D2 synthase using X-ray fragment based drug discovery” (Medchemcomm, 2014)
Values after ≈ are worked out from the molar mass of the structure shown. Values belong to the compound of their own block, whether it stands above or below them. Active and inactive are the calls of the source. The rule behind the calls is not given here.

Assays:
[1] = molecular target: T1, Hematopoietic prostaglandin D synthase (Homo sapiens, UniProt O60760); experiment: Inhibition of human hematopoietic prostaglandin D2 synthase at 100 uM by fluorescence polarisation assay
T1 sequence (O60760 whole entry): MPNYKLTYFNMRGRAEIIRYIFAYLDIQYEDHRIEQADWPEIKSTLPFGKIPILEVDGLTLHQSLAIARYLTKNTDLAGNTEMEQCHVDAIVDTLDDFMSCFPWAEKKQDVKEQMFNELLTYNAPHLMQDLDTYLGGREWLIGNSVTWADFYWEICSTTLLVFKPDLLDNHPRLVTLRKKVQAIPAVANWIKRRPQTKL

[2] = Aqueous solubility in simulated gastric fluid at pH 1.6; type: physicochemical
[3] = Aqueous solubility in fed simulated intestinal fluid at pH 6.5; type: physicochemical
[4] = Aqueous solubility in fasted simulated intestinal fluid at pH 6.5; type: physicochemical
[5] = Aqueous solubility in water; type: physicochemical
[6] = molecular target: T1, Hematopoietic prostaglandin D synthase; experiment: Inhibition of human hematopoietic prostaglandin D2 synthase by fluorescence polarisation assay
[7] = molecular target: T1, Hematopoietic prostaglandin D synthase; experiment: Inhibition of human hematopoietic prostaglandin D2 synthase by rapid fire mass spectrometry assay
[8] = molecular target: T1, Hematopoietic prostaglandin D synthase; experiment: Inhibition of hematopoietic prostaglandin D2 synthase in IgE and IL-5 primed human LAD2 cells assessed as reduction in PGD2 production by mass spectrometry; type: cell-based
[9] = molecular target: T1, Hematopoietic prostaglandin D synthase; experiment: Inhibition of human hematopoietic prostaglandin D2 synthase at 30 uM by fluorescence polarisation assay
[10] = molecular target: T1, Hematopoietic prostaglandin D synthase; experiment: Inhibition of human hematopoietic prostaglandin D2 synthase at 10 nM by fluorescence polarisation assay
[11] = Half life in rat at 1 mg/kg, iv or 3 mg/kg, po by LC-MS/MS method; type: ADME, organism-based; conditions: in vivo
[12] = Protein binding in rat whole blood at 1 mg/kg, iv or 3 mg/kg, po by LC-MS/MS method; type: ADME, organism-based; conditions: read-out: PB (converted)
[13] = Tmax in rat at 3 mg/kg, po by LC-MS/MS method; type: ADME, organism-based; parameters: dose 3 mg/kg, route oral; conditions: in vivo
Rattus norvegicus = experiment: fCmax in rat at 3 mg/kg, po by LC-MS/MS method; type: ADME, organism-based; parameters: dose 3 mg/kg, route oral; conditions: in vivo
Mus musculus = experiment: Reduction in PGD2 level in C57/BL6/J mouse peritoneal lavage supernatants at 30 mg/kg, po measured 40 mins after compound 48/80 injection by enzyme immunoassay pre-treated 30 mins before compound 48/80 injection; type: functional, organism-based; parameters: dose 30 mg/kg
[14] = Volume of distribution at steady state in rat at 1 mg/kg, iv or 3 mg/kg, po by LC-MS/MS method; type: ADME, organism-based; conditions: in vivo, read-out: Vdss
[15] = Oral bioavailability in rat at 3 mg/kg by LC-MS/MS method; type: ADME, organism-based; conditions: in vivo
[16] = Cmax in rat at 3 mg/kg, po by LC-MS/MS method; type: ADME, organism-based; parameters: dose 3 mg/kg, route oral; conditions: in vivo
[17] = Fraction unbound in rat at 1 mg/kg, iv or 3 mg/kg, po by LC-MS/MS method; type: ADME, organism-based; conditions: in vivo
[18] = Blood clearance in rat at 1 mg/kg, iv or 3 mg/kg, po by LC-MS/MS method; type: ADME, organism-based
[19] = AUC (0 to infinity) in rat at 1 mg/kg, iv or 3 mg/kg, po by LC-MS/MS method; type: ADME, organism-based; conditions: plasma

inhibition [1]: 58%
Structure (SMILES): c1cncc(-c2cn[nH]c2)c1

solubility [2]: 203 µg/mL (≈ 584 µM) | solubility [3]: < 1 µg/mL | solubility [4]: 4.6 µg/mL (≈ 13.2 µM) | solubility [5]: 4.4 µg/mL (≈ 12.7 µM)
Structure (SMILES): Cc1cn(NC(=O)c2cnc(-c3ccccn3)nc2)c2ccc(F)cc12

IC50 [6]: 500 nM
Structure (SMILES): c1nc(NC2CCCC2)c2cc[nH]c2n1

IC50 [6]: 17000 nM
Structure (SMILES): c1cncc(-c2c[nH]nc2C2CC2)c1

IC50 [6]: 40 nM | IC50 [7]: 501 nM | IC50 [8]: 4000 nM
Structure (SMILES): CCNC(=O)N1Cc2cc(-c3c[nH]nc3C3CC3)cnc2C1

inhibition [9]: 52%
Structure (SMILES): Cc1n[nH]cc1-c1ccc(C#N)cc1

inhibition [10]: 66% | half-life [11]: 132 min | solubility [2]: 885 µg/mL (≈ 2620 µM) | IC50 [6]: < 10 nM | fraction unbound [12]: 0.055 | IC50 [7]: 40 nM | Tmax [13]: 30 min | fCmax (Rattus norvegicus): 30 nM | IC50 [8]: 317 nM | solubility [3]: 136 µg/mL (≈ 403 µM) | Vd [14]: 2.8 L/kg | solubility [4]: 109 µg/mL (≈ 323 µM) | solubility [5]: 52 µg/mL (≈ 154 µM) | bioavailability [15]: 19% | Cmax [16]: 196 ng/mL | fraction unbound [17]: 0.055 | clearance [18]: 33 mL/min/kg | AUC(0-inf) [19]: 295 ng·h/mL
Structure (SMILES): O=C(NC1CCCC1)N1Cc2cc(-c3c[nH]nc3C3CC3)cnc2C1
Activity (Mus musculus): Active

solubility [2]: 48.9 µg/mL (≈ 128 µM) | solubility [3]: 44 µg/mL (≈ 115 µM) | solubility [4]: 31.2 µg/mL (≈ 81.8 µM) | solubility [5]: 16.5 µg/mL (≈ 43.3 µM)
Structure (SMILES): Cn1nnnc1N1CCC(NC(=O)c2ccc(-c3cccc(F)c3)nc2)CC1

IC50 [6]: 8500 nM
Structure (SMILES): c1nc(NC2CCCC2)c2cn[nH]c2n1
